Assay results reported in patent publication US8648076B2, “Cysteine protease inhibitors and their therapeutic applications” (Hybrigenics SA, priority 2005, dated 2014).
Read-outs that look alike come from different tables or passages of the source.

What was measured:
Type in all cases: biochemical
[1] = target: T1, USP7 (Homo sapiens, UniProt Q93009); assay: USP7 activity assay
T1 construct: His tag (from pFastBac-HT vector) (N); made in house; host or cells: insect cells (Sf9 or High Five), baculovirus

[2] = target: T2, Uch-L3 (Homo sapiens, UniProt P15374); assay: UCH-L3 activity assay; conditions: 400 nM Ub-AMC, 13 pM enzyme, 30 min pre-incubation at 25° C., 60 min at 37° C.; sigmoidal fit; AF: Autofluorescent; read-out: Uch-L3 (inhibition of cysteine protease activity)
T2 sequence (P15374 1-230): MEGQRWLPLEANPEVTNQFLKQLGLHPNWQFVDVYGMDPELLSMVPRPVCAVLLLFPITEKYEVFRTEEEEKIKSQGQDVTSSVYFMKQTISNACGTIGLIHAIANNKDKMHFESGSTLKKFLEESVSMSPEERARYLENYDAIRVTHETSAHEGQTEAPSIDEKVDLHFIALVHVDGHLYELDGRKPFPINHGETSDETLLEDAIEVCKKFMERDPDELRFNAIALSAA
Method: (§1) Bovine Serum Albumin 0.05 mg·ml^−1 pH7.6). Compounds stocks (100 mM) were stored at −20° C. in DMSO. […] Reactions were performed as duplicates in Black LJL 96 well plates (HE microplates; Molecular Devices; 20 μl final reaction volume). The substrate concentration for Uch-L3 was 400 nM Ub-AMC (Boston Biochem). The concentration of the enzyme (Uch-L3) in specificity assays was 13 pM. The concentrations were determined in order to perform specificity assays under initial velocities at fixed substrate concentration. Compounds were pre-incubated with enzymes for 30 minutes at 25° C. Reactions were initiated by addition of substrate to the plates containing the enzymes (+/−compounds) diluted in assay buffer. Reactions were incubated for 60 minutes at 37° C. Reactions were stopped by adding acetic acid (100 mM final). Readings were performed on a Pherastar Fluorescent Reader (BMG). δ Emission 380 nm; δ Excitation=460 nm. Data (mean values+/− standard deviation) were analyzed as % of control (no compound) and plotted as percentage versus the Log of the compound concentration using GraphPad (Prism). Data were fitted to a sigmoidal model (variable slope).

[3] = target: T3, Caspase 3 (Homo sapiens, UniProt P42574); assay: Caspase 3 activity assay; conditions: 500 nM Ac-DEVD-AMC, 3.2 nM enzyme, 30 min pre-incubation at 25° C., 60 min at 37° C.; sigmoidal fit; AF: Autofluorescent; read-out: Casp3 (inhibition of cysteine protease activity)
T3 sequence (P42574 29-175 limits assumed): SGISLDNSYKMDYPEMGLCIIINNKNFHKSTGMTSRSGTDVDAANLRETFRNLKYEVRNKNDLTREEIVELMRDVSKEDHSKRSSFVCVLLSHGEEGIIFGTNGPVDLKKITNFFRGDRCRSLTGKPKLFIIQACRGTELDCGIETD
T3 sequence (P42574 176-277 limits assumed): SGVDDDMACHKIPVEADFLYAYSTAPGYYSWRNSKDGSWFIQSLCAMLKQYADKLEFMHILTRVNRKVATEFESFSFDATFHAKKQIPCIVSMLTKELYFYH
Method: as §1, with “Compounds” for “Bovine Serum Albumin 0.05 mg·ml^−1 pH7.6). Compounds”, “caspase 3 specificity assay” for “Uch-L3”, “500” for “400”, “(Ac-DEVD-AMC; Promega). […]” for “Ub-AMC (Boston Biochem). The concentration of the enzyme (Uch-L3) in specificity assays was 13 pM.”

[4] = target: Cathepsin B (Homo sapiens, UniProt P07858); assay: Cathepsin B activity assay; conditions: 36 μM z-RR-AMC, 3.6 nM enzyme, 30 min pre-incubation at 25° C., 60 min at 37° C.; sigmoidal fit; AF: Autofluorescent; read-out: cathepB (inhibition of cysteine protease activity)
Method: Cathepsin B was diluted in Cathepsin B buffer (20 mM Tris HCl pH 6.8; 1 mM EDTA; 1 mM DTT). Compounds stocks (100 mM) were stored at −20° C. in DMSO. […] Reactions were performed as duplicates in Black LJL 96 well plates (HE microplates; Molecular Devices; 20 μl final reaction volume). The substrate concentration for cathepsin B specificity assay was 36 μM (z-RR-AMC; Calbiochem). The concentration of the enzyme (Cathepsin B) in specificity assays was 3.6 nM. The concentrations were determined in order to perform specificity assays under initial velocities at fixed substrate concentration. Compounds were pre-incubated with enzymes for 30 minutes at 25° C. Reactions were initiated by addition of substrate to the plates containing the enzymes (+/− compounds) diluted in assay buffer. Reactions were incubated for 60 minutes at 37° C. Reactions were stopped by adding acetic acid (100 mM final). Readings were performed on a Pherastar Fluorescent Reader (BMG). δ Emission 380 nm; 6 Excitation=460 nm. Data (mean values+/− standard deviation) were analyzed as % of control (no compound) and plotted as percentage versus the Log of the compound concentration using GraphPad (Prism). Data were fitted to a sigmoidal model (variable slope).

[5] = 400 nM Ub-AMC, 152 pM enzyme, 30 min pre-incubation at 25° C., 60 min at 37° C., sigmoidal fit, read-out: USP 7 (inhibition of cysteine protease activity)

T1 sequence (Q93009 whole entry): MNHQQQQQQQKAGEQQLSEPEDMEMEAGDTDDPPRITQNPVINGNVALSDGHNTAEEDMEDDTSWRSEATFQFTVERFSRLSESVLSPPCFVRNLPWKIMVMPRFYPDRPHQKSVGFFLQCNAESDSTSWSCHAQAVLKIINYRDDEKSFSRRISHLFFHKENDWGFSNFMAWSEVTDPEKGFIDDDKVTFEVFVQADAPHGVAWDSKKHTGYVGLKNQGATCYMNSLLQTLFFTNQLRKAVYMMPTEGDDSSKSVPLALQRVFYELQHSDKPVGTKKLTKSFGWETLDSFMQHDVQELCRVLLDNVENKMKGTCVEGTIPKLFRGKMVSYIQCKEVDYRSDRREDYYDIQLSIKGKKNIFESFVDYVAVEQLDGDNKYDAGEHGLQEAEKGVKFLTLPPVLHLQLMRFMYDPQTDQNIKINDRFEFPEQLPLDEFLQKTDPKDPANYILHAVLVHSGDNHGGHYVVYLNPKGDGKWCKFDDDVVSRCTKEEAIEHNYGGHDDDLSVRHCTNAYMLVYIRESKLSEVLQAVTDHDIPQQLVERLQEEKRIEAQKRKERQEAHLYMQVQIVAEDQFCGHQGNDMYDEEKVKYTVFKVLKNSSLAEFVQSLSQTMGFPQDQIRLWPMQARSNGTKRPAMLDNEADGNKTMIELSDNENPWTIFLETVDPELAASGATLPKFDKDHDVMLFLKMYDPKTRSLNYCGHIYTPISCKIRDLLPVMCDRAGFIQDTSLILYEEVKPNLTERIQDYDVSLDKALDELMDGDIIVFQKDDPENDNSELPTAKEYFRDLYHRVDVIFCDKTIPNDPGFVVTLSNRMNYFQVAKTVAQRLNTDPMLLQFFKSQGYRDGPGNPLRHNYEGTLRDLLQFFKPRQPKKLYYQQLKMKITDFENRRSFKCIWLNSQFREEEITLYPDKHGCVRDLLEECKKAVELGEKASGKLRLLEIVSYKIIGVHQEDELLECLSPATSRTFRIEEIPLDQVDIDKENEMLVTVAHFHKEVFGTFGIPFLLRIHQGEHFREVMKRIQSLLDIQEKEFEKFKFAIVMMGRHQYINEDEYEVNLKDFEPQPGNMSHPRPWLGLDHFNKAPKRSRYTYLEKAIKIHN

Cc1cccc2c1Cc1nc(C#N)c(C#N)nc1-2 [Example 16c, 8-Methyl-9H-indeno[1,2-b]pyrazine-2,3-dicarbonitrile]
IC50 [1, 5]: > 100 µM | IC50 [2]: > 100 µM | IC50 [3]: > 100 µM | IC50 [4]: > 100 µM

N#Cc1nc2c(nc1C#N)-c1ccccc1C2=NOCc1ccccc1 (mixture of isomers) [Example 13C, 9-Benzyloxyimino-9H-indeno[1,2-b]pyrazine-2,3-dicarbonitrile]
IC50 [1, 5]: > 100 µM | IC50 [2]: > 100 µM | IC50 [3]: > 100 µM | IC50 [4]: > 100 µM

COc1nc2c(nc1C#N)C(=O)c1ccccc1-2 [Example 3, 3-methoxy-9-oxo-9H-indeno[1,2-b]pyrazine-2-carbonitrile]
IC50 [1, 5]: > 100 µM | IC50 [2]: 13 µM | IC50 [3]: > 100 µM | IC50 [4]: > 100 µM

N#Cc1nc2c(nc1C#N)-c1ccc(Cl)cc1C2=NOCCOc1ccccc1 [Example 27b, 7-Chloro-9-(2-phenoxy-ethoxyimino)-9H-indeno[1,2-b]pyrazine-2,3-dicarbonitrile]
IC50 [1]: > 100 µM | IC50 [2]: 1.7 µM | IC50 [3]: > 100 µM | IC50 [4]: > 100 µM

C=CCON=C1c2ccccc2-c2nc(C(N)=O)c(C#N)nc21 [Example 34a, 9-Allyloxyimino-2-cyano-9H-indeno[1,2-b]pyrazine-3-carboxylic acid amide]
IC50 [1]: 0.5 µM | IC50 [2]: 0.032 µM | IC50 [3]: 0.245 µM | IC50 [4]: 3.5 µM

CCON=C1c2ccccc2-c2nc(C#N)c(C#N)nc21 (mixture of isomers) [Example 13d, 9-Ethoxyimino-9H-indeno[1,2-b]pyrazine-2,3-dicarbonitrile]
IC50 [1, 5]: > 100 µM | IC50 [2]: 1.3 µM | IC50 [3]: > 100 µM | IC50 [4]: > 100 µM

N#Cc1nc2c(nc1N)-c1ccccc1C2=O [Example 7, 3-amino-9-oxo-9H-indeno[1,2-b]pyrazine-2-carbonitrile]
IC50 [1, 5]: > 100 µM | IC50 [2]: 52 µM | IC50 [3]: > 100 µM | IC50 [4]: > 100 µM

CC(=O)O/N=C1\c2ccccc2-c2nc(C(N)=O)c(C#N)nc21 (single isomer, unassigned) [Example 35, 2-cyano-9-acetoxyimino-9H-indeno[1,2-b]pyrazine-3-carboxylic acid amide]
IC50 [1]: 0.506 µM | IC50 [2]: 0.048 µM | IC50 [3]: 0.12 µM | IC50 [4]: 11.5 µM

N#Cc1nc2c(nc1O)-c1ccccc1C2=O [Example 6, 3-hydroxy-9-oxo-9H-indeno[1,2-b]pyrazine-2-carbonitrile]
IC50 [1, 5]: 21.8 µM | IC50 [2]: 1.1 µM | IC50 [3]: 9.3 µM | IC50 [4]: > 100 µM

COc1ccc(OC)c2c1C(=O)c1nc(C#N)c(C#N)nc1-2 [Example 17f, 5,8-Dimethoxy-9-oxo-9H-indeno[1,2-b]pyrazine-2,3-dicarbonitrile]
IC50 [1, 5]: 12.7 µM | IC50 [2]: 0.6 µM | IC50 [3]: 2 µM | IC50 [4]: 52.6 µM

N#Cc1nc2c(nc1O)-c1ccc(Cl)cc1C2=O [Example 42, 7-chloro-3-hydroxy-9-oxo-9H-indeno[1,2-b]pyrazine-2-carbonitrile]
IC50 [1]: > 100 µM | IC50 [2]: > 100 µM | IC50 [3]: > 100 µM | IC50 [4]: > 100 µM

CON=C1c2ccccc2-c2nc(C(N)=O)c(C#N)nc21 [Example 34d, 2-Cyano-9-methoxyimino-9H-indeno[1,2-b]pyrazine-3-carboxylic acid amide]
IC50 [1]: 0.396 µM | IC50 [2]: 0.037 µM | IC50 [3]: 0.131 µM | IC50 [4]: 1.11 µM

CCc1ccc2c(c1)-c1nc(C#N)c(C#N)nc1C2=O [Example 32, 6-ethyl-9-oxo-9H-indeno[1,2-b]pyrazine-2,3-dicarbonitrile]
IC50 [1]: 2.59 µM | IC50 [2]: 0.258 µM | IC50 [3]: 3.6 µM | IC50 [4]: 69 µM

COCCOc1nc2c(nc1C#N)C(=O)c1ccccc1-2 [Example 5, 3-(2-methoxy-ethoxy)-9-oxo-9H-indeno[1,2-b]pyrazine-2-carbonitrile]
IC50 [1, 5]: > 100 µM | IC50 [2]: 24 µM | IC50 [3]: > 100 µM | IC50 [4]: > 100 µM

N#Cc1nc2c(nc1Cl)-c1ccccc1C2=O [Example 9, 3-chloro-9-oxo-9H-indeno[1,2-b]pyrazine-2-carbonitrile]
IC50 [1, 5]: > 100 µM | IC50 [2]: 8.8 µM | IC50 [3]: > 100 µM | IC50 [4]: > 100 µM

N#Cc1nc2c(nc1N1CCC(F)(F)CC1)-c1ccccc1C2=O [Example 8, 3-(4,4-difluoro-piperidin-1-yl)-9-oxo-9H-indeno[1,2-b]-pyrazine-2-carbonitrile]
IC50 [1, 5]: > 100 µM | IC50 [2]: > 100 µM | IC50 [3]: > 100 µM | IC50 [4]: > 100 µM

COc1ccc2c(c1)C(=O)c1nc(C#N)c(C#N)nc1-2 [Example 17i, 7-Methoxy-9-oxo-9H-indeno[1,2-b]pyrazine-2,3-dicarbonitrile]
IC50 [1, 5]: > 100 µM | IC50 [2]: 3.1 µM | IC50 [3]: 2 µM | IC50 [4]: 32 µM

N#Cc1nc2c(nc1C#N)C(=O)c1ccccc1C2=O [Example 20, 5,10-dioxo-5,10-dihydro-benzo[g]quinoxaline-2,3-dicarbonitrile]
IC50 [1]: > 100 µM | IC50 [2]: 39.6 µM | IC50 [3]: > 100 µM | IC50 [4]: > 100 µM

COc1ccc2c(c1OC)C(=O)c1nc(C#N)c(C#N)nc1-2 [Example 17d, 7,8-Dimethoxy-9-oxo-9H-indeno[1,2-b]pyrazine-2,3-dicarbonitrile]
IC50 [1, 5]: 18 µM | IC50 [2]: 0.77 µM | IC50 [3]: 1.8 µM | IC50 [4]: 87 µM

CN(C)c1nc2c(nc1C#N)C(=O)c1ccccc1-2 [Example 4, 3-dimethylamino-9-oxo-9H-indeno[1,2-b]pyrazine-2-carbonitrile]
IC50 [1, 5]: > 100 µM | IC50 [2]: > 100 µM | IC50 [3]: > 100 µM | IC50 [4]: > 100 µM

CCON=C1c2ccccc2-c2nc(C(N)=O)c(C#N)nc21 [Example 34b, 2-Cyano-9-ethoxyimino-9H-indeno[1,2-b]pyrazine-3-carboxylic acid amide]
IC50 [1]: 2.51 µM | IC50 [2]: 0.099 µM | IC50 [3]: 0.624 µM | IC50 [4]: > 100 µM

N#Cc1nc2c(nc1C#N)-c1ccc(F)cc1C2=O [Example 17h, 7-Fluoro-9-oxo-9H-indeno[1,2-b]pyrazine-2,3-dicarbonitrile]
IC50 [1, 5]: 4.3 µM | IC50 [2]: 0.33 µM | IC50 [3]: 1 µM | IC50 [4]: 6 µM

Cc1cccc2c1C(=O)c1nc(C#N)c(C#N)nc1-2 [Example 17c, 8-Methyl-9-oxo-9H-indeno[1,2-b]pyrazine-2,3-dicarbonitrile]
IC50 [1, 5]: > 100 µM | IC50 [2]: 2 µM | IC50 [3]: 13 µM | IC50 [4]: > 100 µM
